# Experimental data as given in patent US6689754B1, “Heterocyclic glycyl β-alanine derivatives” (G. D. Searle & Co., priority 1998, dated 2004).
# Structures can show the parent of a compound that is named as a salt.
# Key:
# [1] = biological target: T1, Human vitronectin receptor (αvβ3) (Homo sapiens, UniProt P05106+P06756); assay: Vitronectin adhesion assay: solid phase receptor assay, competition with biotinylated vitronectin; type: binding; details: purified human vitronectin receptor; 1 nM biotinylated vitronectin
# T1 construct: Human vitronectin receptor (αvβ3) was purified from human placenta; from tissue; host or cells: human placenta
# Protocol: Vitronectin Adhesion Assay
# Human vitronectin receptor (αvβ3) was purified from human placenta as previously described [Pytela et al., Methods in Enzymology, 144:475-489 (1987)]. Human vitronectin was purified from fresh frozen plasma as previously described [Yatohgo et al., Cell Structure and Function, 13:281-292 (1988)]. Biotinylated human vitronectin was prepared by coupling NHS-biotin from Pierce Chemical Company (Rockford, Ill.) to purified vitronectin as previously described [Charo et al., J. Biol. Chem., 266(3):1415-1421 (1991)]. Assay buffer, OPD substrate tablets, and RIA grade BSA were obtained from Sigma (St. Louis, Mo.). Anti-biotin antibody was obtained from Calbiochem (La Jolla, Calif.). Linbro microtiter plates were obtained from Flow Labs (McLean, Va.). ADP reagent was obtained from Sigma (St. Louis, Mo.).
# This assay was essentially the same as previously reported [Niiya et al., Blood, 70:475-483 (1987)]. The purified human vitronectin receptor (αvβ3) was diluted from stock solutions to 1.0 μg/mL in Tris-buffered saline containing 1.0 mM Ca^++, Mg^++, and Mn^++, pH 7.4 (TBS^+++). The diluted receptor was immediately transferred to Linbro microtiter plates at 100 μL/well (100 ng receptor/well). The plates were sealed and incubated overnight at 4° C. to allow the receptor to bind to the wells. All remaining steps were at room temperature. The assay plates were emptied and 200 μL of 1% RIA grade BSA in TBS^+++ (TBS^+++/BSA) were added to block exposed plastic surfaces. Following a 2 hour incubation, the assay plates were washed with TBS^+++ using a 96 well plate washer. Logarithmic serial dilution of the test compound and controls were made starting at a stock concentration of 2 mM and using 2 nM biotinylated vitronectin in TBS^+++/BSA as the diluent. This premixing of labeled ligand with test (or control) ligand, and subsequent transfer of 50 μL aliquots to the assay plate was carried out with a CETUS Propette robot; the final concentration of the labeled ligand was 1 nM and the highest concentration of test compound was 1.0×10^−4 M. The competition occurred for two hours after which all wells were washed with a plate washer as before. Affinity purified horseradish peroxidase labeled goat anti-biotin antibody was diluted 1:3000 in TBS^+++/BSA and 125 μL were added to each well. After 30 minutes, the plates were washed and incubated with OPD/H2O2 substrate in 100 mM/L Citrate buffer, pH 5.0. The plate was read with a microtiter plate reader at a wavelength of 450 nm and when the maximum-binding control wells reached an absorbance of about 1.0, the final A450 were recorded for analysis. The data were analyzed using a macro written for use with the EXCELJ spreadsheet program. The mean, standard deviation, and % CV were determined for duplicate concentrations. The mean A450 values were normalized to the mean of four maximum-binding controls (no competitor added)(B-MAX). The normalized values were subjected to a four parameter curve fit algorithm [Rodbard et al., Int.
# [2] = biological target: T2, Human fibrinogen receptor IIb/IIIa (Homo sapiens, UniProt P05106+P08514); assay: Purified IIb/IIIa receptor assay: solid phase receptor assay, competition with biotinylated vitronectin; type: binding; details: 1 nM biotinylated vitronectin
# T2 construct: Human fibrinogen receptor ([…]) was purified from outdated platelets; from tissue; host or cells: outdated human platelets
# Description: Purified IIb/IIIa Receptor Assay
# Human fibrinogen receptor ([…]) was purified from outdated platelets. (Pytela, R., Pierschbacher, M. D., Argraves, S., Suzuki, S., and Rouslahti, E. “Arginine-Glycine-Aspartic acid adhesion receptors”, Methods in Enzymology 144(1987):475-489.) Human vitronectin was purified from fresh frozen plasma as described in Yatohgo, T., Izumi, M., Kashiwagi, H., and Hayashi, M., “Novel purification of vitronectin from human plasma by heparin affinity chromatography,” Cell Structure and Function 13(1988):281-292. Biotinylated human vitronectin was prepared by coupling NHS-biotin from Pierce Chemical Company (Rockford, Ill.) to purified vitronectin as previously described. (Charo, I. F., Nannizzi, L., Phillips, D. R., Hsu, M. A., Scarborough, R. M., “Inhibition of fibrinogen binding to GP IIb/IIIa by a GP IIIa peptide”, J. Biol. Chem. 266(3)(1991): 1415-1421.) Assay buffer, OPD substrate tablets, and RIA grade BSA were obtained from Sigma (St. Louis, Mo.). Anti-biotin antibody was obtained from Calbiochem (La Jolla, Calif.). Linbro microtiter plates were obtained from Flow Labs (McLean, Vs.). ADP reagent was obtained from Sigma (St. Louis, Mo.).
# This assay is essentially the same reported in Niiya, K., Hodson, E., Bader, R., Byers-Ward, V. Koziol, J. A., Plow, E. F. and Ruggeri, Z. M., “Increased surface expression of the membrane glycoprotein IIb/IIIa complex induced by platelet activation: Relationships to the binding of fibrinogen and platelet aggregation”, Blood 70(1987):475-483. The purified human fibrinogen receptor ([…]) was diluted from stock solutions to 1.0 μg/mL in Tris-buffered saline containing 1.0 mM Ca^++, Mg^++, and Mn^++, pH 7.4 (TBS^+++). The diluted receptor was immediately transferred to Linbro microtiter plates at 100 μL/well (100 ng receptor/well). The plates were sealed and incubated overnight at 4° C. to allow the receptor to bind to the wells. All remaining Steps were at room temperature. The assay plates were emptied and 200 μL of 1% RIA grade BSA in TBS^+++ (TBS^+++/BSA) were added to block exposed plastic surfaces. Following a 2 hour incubation, the assay plates were washed with TBS^+++ using a 96 well plate washer. Logarithmic serial dilution of the test compound and controls were made starting at a stock concentration of 2 mM and using 2 nM biotinylated vitronectin in TBS^+++/BSA as the diluent. This premixing of labeled ligand with test (or control) ligand, and subsequent transfer of 50 μL aliquots to the assay plate was carried out with a CETUS Propette robot; the final concentration of the labeled ligand was 1 nM and the highest concentration of test compound was 1.0×10^−4 M. The competition occurred for two hours after which all wells were washed with a plate washer as before. Affinity purified horseradish peroxidase labeled goat anti-biotin antibody was diluted 1:3000 in TBS^+++/BSA and 125 μL were added to each well. After 30 minutes, the plates were washed and incubated with […] substrate in 100 mM/L citrate buffer, pH 5.0. The plate was read with a microtiter plate reader at a wavelength of 450 nm and when the maximum-binding control wells reached an absorbance of about 1.0, the final A450 were recorded for analysis. The data were analyzed using a macro written for use with the EXCELJ spreadsheet program. The mean, standard deviation, and % CV were determined for duplicate concentrations. The mean A450 values were normalized to the mean of four maximum-binding controls (no competitor added)(B-MAX). The normalized values were subjected to a four parameter curve fit algorithm, [Robard et al., Int. Atomic Energy Agency.
IC50 [1] [nM],IC50 [2] [nM],SMILES
155,29.5,COc1cc(NC2=NCC(O)CN2)nc(C(=O)NCC(=O)N[C@@H](CC(=O)O)c2cc(Cl)cc(Br)c2O)c1 (some centres unmarked) [Example 30]
0.32,2020,"O=C(O)CC(NC(=O)CNC(=O)c1c[nH]c(=O)c(NC2=NCCN2)c1)c1cc(Cl)cc(Cl)c1O (stereo not drawn) [Example 20, N-[[5-[(4,5,-dihydro-1H-imidazol-2-yl)amino]-1,6-dihydro-6-oxo-3-pyridinyl]-carbonyl]glycyl-3-(3,5-dichloro-2-hydroxyphenyl)-β-alanine, (trifluoroacetate) salt]"
6.96,1710,"COc1ncc(N=C2NCCN2)cc1C(=O)NCC(=O)NC(CC(=O)O)c1cc(Cl)cc(Cl)c1O (stereo not drawn) [Example 22, N-[[(4,5,-dihydro-1H-imidazol-2-yl)amino]-2-methoxy-3-pyridinyl]carbonyl]glycyl-3-(3,5-dichloro-2-hydroxyphenyl)-β-alanine, (trifluoroacetate) salt]"
63.8,267,O=C(O)C[C@H](NC(=O)CNC(=O)c1csc(NC2=NCC(O)CN2)c1)c1cc(Cl)cc(Cl)c1O (some centres unmarked) [Example 37]
2.96,2490,"O=C(O)CC(NC(=O)CNC(=O)c1cnc(Cl)c(NC2=NCCN2)c1)c1cc(Cl)cc(Cl)c1O (stereo not drawn) [Example 19, N-[[6-chloro-5-[(4,5,-dihydro-1H-imidazol-2-yl)amino]-3-pyridinyl]carbonyl]-glycyl-3-(3,5-dichloro-2-hydroxyphenyl)-β-alanine, (trifluoroacetate) salt, monohydrate]"
1920,2460,O=C(O)C[C@H](NC(=O)CNC(=O)c1cscc1CNC1=NCC(O)CN1)c1cc(Cl)cc(Cl)c1O (some centres unmarked) [Example 39]
25.4,1040,"Cc1sc(C(=O)NCC(=O)N[C@@H](CC(=O)O)c2cc(Cl)cc(Cl)c2O)cc1NC1=NCCN1 [Example 15, (3S)-N-[[4-(4,5,-dihydro-1H-imidazol-2-yl)amino]-5-methyl-2-thienyl]carbonyl]glycyl-3-(3,5-dichloro-2-hydroxyphenyl)-β-alanine, trifluoroacetate salt]"
1.13,970,O=C(O)C[C@H](NC(=O)CNC(=O)c1c[nH]c(=O)c(NC2=NCCN2)c1)c1cc(Br)cc(Br)c1O [Example 36]
1.97,2690,COCCN/C(N)=N/c1cc(C(=O)NCC(=O)N[C@@H](CC(=O)O)c2cc(Cl)cc(Cl)c2O)c[nH]c1=O [Example 46]
95.1,857,N=C(N)Nc1nc(C(=O)NCC(=O)NC(CC(=O)O)c2cccnc2)cs1 (centres unmarked) [Example 8]
1.58,313,N=C(N)Nc1cncc(C(=O)NCC(=O)NC(CC(=O)O)c2cc(Cl)cc(Br)c2O)c1 (centres unmarked) [Example 1]
0.14,161,O=C(O)C[C@H](NC(=O)CNC(=O)c1cncc(N=C2NCC(O)CN2)c1)c1cc(Cl)cc(Cl)c1O (some centres unmarked) [Example 10]
9.32,780,"O=C(O)CC(NC(=O)CNC(=O)c1cc(NC2=NCCN2)cs1)c1cc(Cl)cc(Cl)c1O (stereo not drawn) [Example 13, N-[[4-[(4,5-dihydro-1H-imidazol-2-yl)amino]-2-thienyl]carbonyl]glycyl-3-(3,5-dichloro-2-hydroxyphenyl)-β-alanine, trifluoroacetate salt]"
0.27,1260,O=C(O)CC(NC(=O)CNC(=O)c1cncc(NC2=NCCCN2)c1)c1cc(Cl)cc(Cl)c1O (centres unmarked) [Example 6]
0.2,520,O=C(O)C[C@H](NC(=O)CNC(=O)c1c[nH]c(=O)c(NC2=NCC(O)CN2)c1)c1cc(Cl)cc(Br)c1O (some centres unmarked) [Example 33]
1090,1680,O=C(O)C[C@H](NC(=O)CNC(=O)c1sccc1CNC1=NCC(O)CN1)c1cc(Cl)cc(Cl)c1O (some centres unmarked) [Example 45]
22000,6180,"O=C(O)CC(NC(=O)CNC(=O)c1ccc(NC2=NCCN2)s1)c1cc(Cl)cc(Cl)c1O (stereo not drawn) [Example 16, N-[[5-(4,5,-dihydro-1H-imidazol-2-yl)amino]-2-thienyl]carbonyl]glycyl]-3-(3,5-dichloro-2-hydroxyphenyl)-β-alanine, trifluoroacetate salt]"
0.43,984,COCCOCn1cc(C(=O)NCC(=O)NC(CC(=O)O)c2cc(Br)cc(Br)c2O)cc(NC2=NCC(O)CN2)c1=O (centres unmarked) [Example 28]
3940,1800,O=C(O)C[C@H](NC(=O)CNC(=O)c1cc(=O)cc(NC2=NCC(O)CN2)[nH]1)c1cc(Cl)cc(Br)c1O (some centres unmarked) [Example 31]
4.3,27900,O=C(O)C[C@@H](NC(=O)CNC(=O)c1c[nH]c(=O)c(NC2=NCCN2)c1)c1cc(Cl)cc(Cl)c1O [Example 48]
0.21,361,O=C(O)C[C@H](NC(=O)CNC(=O)c1cncc(NC2=NCC(O)CN2)c1)c1cc(Br)cc(Cl)c1O (some centres unmarked) [Example 7]
1.32,272,N=C(N)Nc1cncc(C(=O)NCC(=O)NC(CC(=O)O)c2cc(Cl)cc(Cl)c2O)c1 (centres unmarked) [Example 2]
0.71,831,O=C(O)C[C@H](NC(=O)CNC(=O)c1cncc(NC2=NCC(O)CN2)c1)c1cc(Br)cc(I)c1O (some centres unmarked) [Example 26]
0.41,298,O=C(O)CC(NC(=O)CNC(=O)c1cncc(NC2=NCCN2)c1)c1cc(Cl)cc(Cl)c1O (centres unmarked) [Example 3]
3.1,5950,O=C(O)C[C@H](NC(=O)CNC(=O)c1cc(NC2=NCC(O)CN2)[nH]c(=O)c1)c1cc(Cl)cc(Cl)c1O (some centres unmarked) [Example 42]
